Assay [1] deals with TrkA (histidine-tagged recombinant human TrkA, cytoplasmic domain) (Homo sapiens (Human), UniProt P04629). Kind of assay: TrkA ELISA assay. The assay is classed as biochemical. Conditions: Table 1, 500 μM ATP, read-out: TrkA Enzyme IC50. The procedure: An enzyme-linked immunosorbant assay (ELISA) was used to assess TrkA kinase activity in the presence of inhibitors. Immulon 4HBX 384-well microtiter plates (Thermo part #8755) were coated with a 0.025 mg/mL solution of poly (Glu, Ala, Tyr; 6:3:1; Sigma P3899). […] The assay buffer consisted of 25 mM MOPS pH 7.5, 0.005% (v/v) Triton X-100 and 5 mM MgCl2. The reaction mixture was removed from the plate by washing with PBS containing 0.1% (v/v) Tween 20. The phosphorylated reaction product was detected using 0.2 μg/mL of a phosphotyrosine specific monoclonal antibody (clone PY20) conjugated to horseradish peroxidase in conjunction with the TMB Peroxidase Substrate System (KPL). After the addition of 1M phosphoric acid, the chromogenic substrate color intensity was quantitated via absorbance at 450 nm.
TrkA (histidine-tagged recombinant human TrkA, cytoplasmic domain), sequence (P04629 440-796): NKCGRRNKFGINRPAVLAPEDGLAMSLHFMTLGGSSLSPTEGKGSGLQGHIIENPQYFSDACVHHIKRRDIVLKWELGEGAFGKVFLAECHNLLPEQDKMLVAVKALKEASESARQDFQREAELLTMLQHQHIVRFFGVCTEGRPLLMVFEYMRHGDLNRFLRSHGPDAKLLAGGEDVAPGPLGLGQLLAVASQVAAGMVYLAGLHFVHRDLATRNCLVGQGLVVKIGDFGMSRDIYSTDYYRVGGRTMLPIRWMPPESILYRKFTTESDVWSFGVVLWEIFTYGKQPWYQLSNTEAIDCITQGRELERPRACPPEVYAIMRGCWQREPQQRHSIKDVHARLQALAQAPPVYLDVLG

A further assay concerns the target Human Jak2 kinase domain (Homo sapiens (Human), UniProt O60674). Kind of assay: Jak2 inhibition assay (Omnia kinase assay). Format: biochemical. To be noted: Table 1; >1000 nM when >50% inhibition not observed at 1000 nM; read-out: Jak2 Enzyme IC50. The source says: The assays described in Examples C, D, E and F for the determination of JAK1, JAK2, JAK3 and Tyk2 kinase activity, respectively, utilized the Omnia® Kinase fluorescence peptide substrate-based technology (Invitrogen). The specific components of the assay mixture are described in Examples C, D and E. […] Two-μL aliquots of these were transferred to a fresh plate for a ten-fold intermediate dilution with assay buffer. […] Human Jak2 kinase domain comprising amino acids 808-1132 was purchased from Invitrogen Corporation, Carlsbad, Calif.

This note sets out measurements from US9796724B2, “Substituted pyrazolo[1,5-a]pyrimidine compounds as Trk kinase inhibitors” (Array BioPharma, Inc., priority 2009, dated 2017).

What is called IC50 is the concentration needed to halve the response being measured.

Molecules are shown by their SMILES. Bounds are passed on as bounds.

Human Jak2 kinase domain, sequence (O60674 808-1132): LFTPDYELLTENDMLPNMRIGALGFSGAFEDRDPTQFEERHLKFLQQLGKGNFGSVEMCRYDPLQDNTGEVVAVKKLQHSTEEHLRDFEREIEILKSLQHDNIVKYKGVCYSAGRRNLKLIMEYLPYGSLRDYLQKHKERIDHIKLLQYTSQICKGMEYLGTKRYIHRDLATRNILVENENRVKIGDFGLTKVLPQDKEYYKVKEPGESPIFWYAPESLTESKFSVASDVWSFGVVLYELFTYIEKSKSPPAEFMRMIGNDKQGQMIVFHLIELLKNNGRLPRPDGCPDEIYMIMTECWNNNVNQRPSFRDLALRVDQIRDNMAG

For the compound `O=C(NCCN1CCC(O)CC1)c1cnn2ccc(N3CCC[C@@H]3c3cc(F)ccc3F)nc12` [Example 170, 5-((R)-2-(2,5-difluorophenyl)pyrrolidin-1-yl)-N-(2-(4-hydroxypiperidin-1-yl)ethyl)pyrazolo[1,5-a]pyrimidine-3-carboxamide], the IC50 in assay [1] is 11.6 nM.
On to `C[C@@H](O)[C@H](CO)NC(=O)c1cnn2ccc(N3CCC[C@@H]3c3cc(F)ccc3F)nc12` [Example 174, 5-((R)-2-(2,5-difluorophenyl)pyrrolidin-1-yl)-N-((2S,3R)-1,3-dihydroxybutan-2-yl)pyrazolo[1,5-a]pyrimidine-3-carboxamide], for which the IC50 in assay [1] is 16.3 nM; at Human Jak2 kinase domain, > 1000 nM.
As to `C[C@H](O)[C@H](CO)NC(=O)c1cnn2ccc(N3CCC[C@@H]3c3cc(F)ccc3F)nc12` [Example 175, 5-((R)-2-(2,5-difluorophenyl)pyrrolidin-1-yl)-N-((2S,3S)-1,3-dihydroxybutan-2-yl)pyrazolo[1,5-a]pyrimidine-3-carboxamide], the IC50 is 12.2 nM in assay [1] and > 1000 nM at Human Jak2 kinase domain.
The matching figures for `C[C@H](O)[C@@H](CO)NC(=O)c1cnn2ccc(N3CCC[C@@H]3c3cc(F)ccc3F)nc12` [Example 176, 5-((R)-2-(2,5-difluorophenyl)pyrrolidin-1-yl)-N-((2R,3S)-1,3-dihydroxybutan-2-yl)pyrazolo[1,5-a]pyrimidine-3-carboxamide]: 27.2 nM and > 1000 nM.
